Data: US20260000698A1 (priority 2022, published 2026)
Like-named read-outs stand apart in the source and are kept apart here. Marks after values point to notes of the source that are not given here.

Experiments:
A549/ACE2/TMPRSS2 cells = test: in vitro; details: A549/ACE2/TMPRSS2 cells
Protocol: (§1) Percentage of infected cells was determined by dividing the number of infected cells by the total number of cells per well. The percentage of infected cells and total number of cells for each treatment was plotted into GraphPad prism (GraphPad Software; San Diego, CA, USA) to perform a non-linear regression analysis, generate infectious dose-response curves and to calculate EC50 and CC50 values.
(§2) Viability assays for the non-infected A549/ACE2/TMPRSS2 cells were performed using the 3-(4,5-dimethylthiazol-2-yl)-5-(3-carboxymethoxyphenyl)-2-(4-sulfophenyl)-2H-tetrazolium (MTS)-based tetrazolium reduction CellTiter 96 Aqueous Non-Radioactive cell proliferation assay (Promega G5430; Madison, WI) as described. Assays were conducted using parallel plates to those used in the immunofluorescence assay. Experimental details (cell line, number of cells seeded and incubation time) corresponded to those used in the immunofluorescence assay above. The data obtained were used to calculate the CC50 value using GraphPad Prism software.

[1] = test system: SARS-CoV-2 isolate USA-WA1/2020
[2] = test system: SARS-CoV-2 isolate USA-WA1/2020; test: microbe, parasite or virus in culture; details: for EC50: Severe acute respiratory syndrome coronavirus 2, A549-ACE2, 48 h; for inhibition at 10 µM: Severe acute respiratory syndrome coronavirus 2, A549-ACE2, read-out: % inhibition at 10 μM (EC50)
[3] = Solubility as observed in antiviral testing
SARS-CoV-2 Nsp14 MTase = SARS-CoV-2 Nsp14 MTase (Severe acute respiratory syndrome coronavirus 2, UniProt P0DTD1); test: biochemical; format: biochemical
in vitro = details: human
Protocol: as §1, §2

[4] = Liver S9 stability assay, mouse liver S9; details: n = 2, mean±SD; for Mouse Liver S9 Stability t1/2, Phase II: cofactor UDPGA
[5] = Plasma stability assay, human plasma; format: in vitro ADME
Protocol: (§3) Plasma stability assay. The plasma stability assay was performed in triplicate by incubating each selected compound (1 μmol/L final concentration) in normal mouse (CD-1) or human plasma (Innovative Research; Novi, MI, USA) diluted to 80% with 0.1 mol/L potassium phosphate buffer (pH 7.4) at 37° C. At 0, 1, 3, 6, and 24 h, a 50 μL aliquot of the plasma mixture was taken and quenched with 150 μL of acetonitrile containing 0.1% formic acid. The samples were then vortexed and centrifuged at 15,000 rpm (Eppendorf centrifuge 5424R; Enfield, CT, USA) for 5 min. The supernatants were collected and analyzed by LC-MS/MS to determine the in vitro plasma half-life (t1/2).

[6] = Plasma stability assay, mouse plasma; format: in vitro ADME, mouse (CD-1)
Protocol: as §3

[7] = Parallel artificial membrane permeability assay (PAMPA); format: in vitro ADME
Protocol: Parallel artificial membrane permeability assay (PAMPA).^5 The membrane permeability of selected compounds was evaluated using the Corning® BioCoat™ Pre-coated PAMPA Plate System (Corning 353015; Glendale, AZ, USA). The pre-coated plate assembly, which was stored at −20° C., was taken to thaw for 30 min at room temperature. The permeability assay was carried out in accordance with the manufacturer's protocol. Briefly, the 96-well filter plate, pre-coated with lipids, was used as the permeation acceptor and a matching 96 well receiver plate was used as the permeation donor. Compound solutions were prepared by diluting the 10 mmol/L DMSO stock solutions with 10% methanol in DPBS to a final concentration of […]. The compound solutions were added to the wells (300 μL/well) of the receiver plate and DPBS with 10% methanol was added to the wells (200 μL/well) of the pre-coated filter plate. The filter plate was then coupled with the receiver plate and the plate assembly was incubated at 25° C. without agitation for 5 h. At the end of the incubation, the plate was separated and the final concentrations of compounds in both donor wells and acceptor wells were analyzed using LC-MS/MS. Permeability of a compound was calculated using the Eq. (1):
where A=filter area (0.3 cm^2), VD=donor well volume (0.3 mL), VA=acceptor well volume (0.2 mL), t=incubation time (seconds), CA(t)=compound concentration in acceptor well at time t, CD(t)=compound concentration in donor well at time t, and Ceq was calculated using the Eq. (2): […]
A cutoff criterion of Pe value at […] was used to classify the compounds into high and low permeability according to the literature report of this PAMPA plate system^1.

[8] = not given; remark: listed apart in the source
[9] = Liver S9 stability assay, human liver S9; details: n = 2, mean±SD
[10] = LC-MS/MS detection of SAH, read-out: MTase IC50

Row | SMILES | EC50 [2] | IC50 (SARS-CoV-2 Nsp14 MTase; [10]) | CC50 (in vitro) | inhibition at 10 µM [2] | also measured
1 | CC(C)C(=O)O[C@@H]1[C@H](OC(=O)C(C)C)[C@@H](CNS(=O)(=O)c2ccc3ccccc3c2)O[C@H]1n1cnc2c(N)ncnc21 [Compound 7, (2R,3R,4R,5R)-2-(6-Amino-9H-purin-9-yl)-5-((naphthalene-2-sulfonamido)methyl)tetrahydrofuran-3,4-diyl bis(2-methylpropanoate)] | ~97 µM | – | – | – | CC50 (A549/ACE2/TMPRSS2 cells): > 100 µM; antiviral activity ([1]; A549 AT cells): showed antiviral activity; solubility [3]: low solubility
2 | Nc1ncnn2c([C@@H]3O[C@H](CNS(=O)(=O)c4csc5ccccc45)[C@@H](O)[C@H]3O)ccc12 [Compound 14, N-(((2R,3S,4R,5S)-5-(4-Aminopyrrolo[2,1-f][1,2,4]triazin-7-yl)-3,4-dihydroxytetrahydrofuran-2-yl)methyl)benzo[b]thiophene-3-sulfonamide] | 13 µM | 2000 nM | > 100 µM | – | –
3 | Nc1ncnc2c1ncn2[C@@H]1C[C@H](CNS(=O)(=O)c2ccc3ccccc3c2)[C@@H](O)[C@H]1O [Compound A1, N-(((1R,2R,3S,4R)-4-(6-Amino-9H-purin-9-yl)-2,3-dihydroxycyclopentyl)methyl)naphthalene-2-sulfonamide] | – | – | > 100 µM | 33% | IC50 (SARS-CoV-2 Nsp14 MTase): 780 nM
4 | CCN(C[C@H]1C[C@@H](n2cnc3c(N)ncnc32)[C@H](O)[C@@H]1O)S(=O)(=O)c1ccc2ccccc2c1 [Compound A2, N-(((1R,2R,3S,4R)-4-(6-Amino-9H-purin-9-yl)-2,3-dihydroxycyclopentyl)methyl)-N-ethylnaphthalene-2-sulfonamide] | – | 260 nM | > 100 µM | 29% | –
5 | O=c1ccc2ccc(O)cc2o1 [Umbelliferone, reference compound] | – | – | – | – | Mouse Liver S9 Stability t1/2, Phase II [4]: 0.8 ± 0.005 min
6 | CCN(C[C@H]1C[C@@H](n2cnc3c(N)ncnc32)[C@@H](O)[C@H]1O)S(=O)(=O)c1ccc2ccccc2c1 [Compound A4, N-(((1R,2S,3R,4R)-4-(6-Amino-9H-purin-9-yl)-2,3-dihydroxycyclopentyl)methyl)-N-ethylnaphthalene-2-sulfonamide] | – | 5100 nM | > 100 µM | 34% | –
7 | Nc1ncnn2c([C@@H]3O[C@H](CNS(=O)(=O)c4cccc5ccccc45)[C@@H](O)[C@H]3O)ccc12 [Compound 12, N-(((2R,3S,4R,5S)-5-(4-Aminopyrrolo[2,1-f][1,2,4]triazin-7-yl)-3,4-dihydroxytetrahydrofuran-2-yl)methyl)naphthalene-1-sulfonamide] | 3 µM | 7300 nM | > 100 µM | – | –
8 | Nc1ncnn2c([C@@H]3O[C@H](CNS(=O)(=O)c4ccc5ccccc5c4)[C@@H](O)[C@H]3O)cc(I)c12 [Compound 49, N-(((2R,3S,4R,5S)-5-(4-Amino-5-iodopyrrolo[2,1-f][1,2,4]triazin-7-yl)-3,4-dihydroxytetrahydrofuran-2-yl)methyl)naphthalene-2-sulfonamide] | 11 µM | 46 nM | 28 µM | – | –
9 | Nc1ncnc2c1ncn2[C@@H]1C[C@H](CNS(=O)(=O)c2ccc3ccccc3c2)[C@H](O)[C@@H]1O [Compound A3, N-(((1R,2S,3R,4R)-4-(6-Amino-9H-purin-9-yl)-2,3-dihydroxycyclopentyl)methyl)naphthalene-2-sulfonamide] | – | – | > 100 µM | 41% | IC50 (SARS-CoV-2 Nsp14 MTase): 103000 nM
10 | Nc1ncnn2c([C@@H]3O[C@H](CNS(=O)(=O)c4ccc5ccccc5c4)[C@@H](O)[C@H]3O)ccc12 [Compound 10, N-(((2R,3S,4R,5S)-5-(4-Aminopyrrolo[2,1-f][1,2,4]triazin-7-yl)-3,4-dihydroxytetrahydrofuran-2-yl)methyl)naphthalene-2-sulfonamide] | 0.72 µM | 93 nM | – | – | MTase inhibitory activity (SARS-CoV-2 Nsp14 MTase): comparable to that of 3; CC50 (A549/ACE2/TMPRSS2 cells): > 100 µM; Plasma Stability t1/2, Human ([5]; human plasma, 37° C., n = 3): >24^d h; stability in human plasma ([5]; human, plasma): similarly stable; Plasma Stability t1/2, Mouse ([6]; mouse plasma, 37° C., n = 3): >24^d h; stability in mouse plasma ([6]; mouse, plasma): similarly stable; passive diffusion rate in PAMPA ([7]; PAMPA): equally low; PAMPA Permeability Pe ([7]; n = 6, mean±SD, 25° C., 5 h): 0.2 ± 0.1 10^−6 cm/s; therapeutic index (TI=CC50/EC50) ([1]; CC50/EC50): greater than 139; stability in human liver S9 fractions: similarly stable; stability in mouse S9 phase I reactions [8]: surprisingly labile; Human Liver S9 Stability t1/2, Phase I ([9]; cofactor NADPH): 842 ± 210 min; Human Liver S9 Stability t1/2, Phase II ([9]; cofactor UDPGA): >45^e min; Mouse Liver S9 Stability t1/2, Phase I ([4]; cofactor NADPH): 28.9 ± 0.3 min; Mouse Liver S9 Stability t1/2, Phase II [4]: >45^e min
11 | Nc1ncnn2c([C@@H]3O[C@H](CNS(=O)(=O)c4cc5ccccc5s4)[C@@H](O)[C@H]3O)ccc12 [Compound 13, N-(((2R,3S,4R,5S)-5-(4-aminopyrrolo[2,1-f][1,2,4]triazin-7-yl)-3,4-dihydroxytetrahydrofuran-2-yl)methyl)benzo[b]thiophene-2-sulfonamide] | 1.6 µM | – | > 100 µM | – | IC50 (SARS-CoV-2 Nsp14 MTase): 42 nM
